According to US12492188B2, “1H-benzo[D]imidazole derivatives as TLR9 inhibitors for the treatment of fibrosis” (BRISTOL-MYERS SQUIBB COMPANY, priority 2020, dated 2025):
Read-outs that look alike come from different tables or passages of the source.

Key:
Format in all cases: cell-based
[1] = molecular target: T1, human TLR9 (Homo sapiens, UniProt Q9NR96); test: TLR9 inhibition reporter assay (HEK-Blue cells, secreted embryonic alkaline phosphatase reporter)
T1 construct: host or cells: HEK-Blue cells (HEK293-derived reporter line)
T1 sequence (Q9NR96 26-1032): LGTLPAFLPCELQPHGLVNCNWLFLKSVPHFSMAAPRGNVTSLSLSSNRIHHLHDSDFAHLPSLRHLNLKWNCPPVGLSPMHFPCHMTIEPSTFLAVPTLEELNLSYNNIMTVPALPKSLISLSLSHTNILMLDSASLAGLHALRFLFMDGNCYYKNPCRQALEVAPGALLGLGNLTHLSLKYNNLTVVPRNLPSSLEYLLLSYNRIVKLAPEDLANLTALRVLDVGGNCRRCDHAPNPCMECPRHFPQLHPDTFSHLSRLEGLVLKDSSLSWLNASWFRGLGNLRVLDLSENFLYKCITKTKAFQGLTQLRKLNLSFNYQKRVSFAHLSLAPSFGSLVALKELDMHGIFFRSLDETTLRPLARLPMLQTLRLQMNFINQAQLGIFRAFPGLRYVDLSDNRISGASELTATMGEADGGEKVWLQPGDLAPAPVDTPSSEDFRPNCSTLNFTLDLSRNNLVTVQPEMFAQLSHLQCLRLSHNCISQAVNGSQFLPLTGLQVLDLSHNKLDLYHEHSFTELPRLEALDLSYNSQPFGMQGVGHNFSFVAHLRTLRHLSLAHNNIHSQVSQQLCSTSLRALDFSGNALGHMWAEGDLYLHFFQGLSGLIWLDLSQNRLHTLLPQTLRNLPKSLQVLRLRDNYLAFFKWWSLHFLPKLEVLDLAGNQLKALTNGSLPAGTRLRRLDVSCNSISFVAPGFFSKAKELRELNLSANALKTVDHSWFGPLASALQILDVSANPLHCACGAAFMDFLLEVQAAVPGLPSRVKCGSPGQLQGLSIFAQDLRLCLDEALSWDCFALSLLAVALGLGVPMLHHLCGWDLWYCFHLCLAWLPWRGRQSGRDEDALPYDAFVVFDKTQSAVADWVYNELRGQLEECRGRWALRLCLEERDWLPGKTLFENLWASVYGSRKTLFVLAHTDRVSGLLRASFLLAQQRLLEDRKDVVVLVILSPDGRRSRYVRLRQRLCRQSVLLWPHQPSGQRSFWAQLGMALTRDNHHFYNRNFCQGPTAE
Outline: (§1)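 Inhibitors are tested in dose response (0.05 nM–50 μM) on HEK-Blue reporter cells expressing human TLR7, TLR8 or TLR9. After 30 min at room temperature, each line is stimulated with its own agonist (gardiquimod 7.5 μM, R848 15.9 μM or ODN2006 5 nM, final) and SEAP is measured 22 h later.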

[2] = molecular target: T2, human TLR8 (Homo sapiens, UniProt Q9NR97); test: TLR8 inhibition reporter assay (HEK-Blue cells, secreted embryonic alkaline phosphatase reporter); conditions: HEK-Blue cells overexpressing human TLR8, stimulated with R848 15.9 μM; read-out: TLR 8 IC50
T2 construct: host or cells: HEK-Blue cells (HEK293-derived reporter line)
T2 sequence (Q9NR97 27-1041): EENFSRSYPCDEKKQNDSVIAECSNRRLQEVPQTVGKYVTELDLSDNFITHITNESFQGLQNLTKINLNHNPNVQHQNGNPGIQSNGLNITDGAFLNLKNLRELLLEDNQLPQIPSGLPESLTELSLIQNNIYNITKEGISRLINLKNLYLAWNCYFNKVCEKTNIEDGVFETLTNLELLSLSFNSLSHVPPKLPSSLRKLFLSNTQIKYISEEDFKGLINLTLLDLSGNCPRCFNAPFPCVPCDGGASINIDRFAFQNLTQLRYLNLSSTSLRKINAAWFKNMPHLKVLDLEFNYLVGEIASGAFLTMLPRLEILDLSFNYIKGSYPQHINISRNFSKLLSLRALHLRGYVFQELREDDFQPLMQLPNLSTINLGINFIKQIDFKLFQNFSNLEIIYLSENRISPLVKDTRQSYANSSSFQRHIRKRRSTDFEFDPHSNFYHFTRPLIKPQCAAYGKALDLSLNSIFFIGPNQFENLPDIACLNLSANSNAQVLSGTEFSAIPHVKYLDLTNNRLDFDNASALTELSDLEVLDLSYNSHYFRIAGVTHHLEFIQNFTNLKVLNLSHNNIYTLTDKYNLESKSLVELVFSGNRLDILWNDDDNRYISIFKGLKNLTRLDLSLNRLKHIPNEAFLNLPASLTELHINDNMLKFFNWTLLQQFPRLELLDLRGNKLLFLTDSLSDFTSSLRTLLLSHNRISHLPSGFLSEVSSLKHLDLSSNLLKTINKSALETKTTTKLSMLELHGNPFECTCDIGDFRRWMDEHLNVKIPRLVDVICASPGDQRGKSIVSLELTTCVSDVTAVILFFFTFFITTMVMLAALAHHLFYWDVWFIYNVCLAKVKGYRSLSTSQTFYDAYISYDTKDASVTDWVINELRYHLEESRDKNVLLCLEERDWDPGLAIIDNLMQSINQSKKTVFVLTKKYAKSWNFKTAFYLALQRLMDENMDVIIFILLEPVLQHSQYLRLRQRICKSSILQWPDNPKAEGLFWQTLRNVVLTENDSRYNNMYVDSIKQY
Outline: as §1

[3] = molecular target: T3, human TLR7 (Homo sapiens, UniProt Q9NYK1); test: TLR7 inhibition reporter assay (HEK-Blue cells, secreted embryonic alkaline phosphatase reporter); conditions: HEK-Blue cells overexpressing human TLR7, stimulated with gardiquimod 7.5 μM; read-out: TLR 7 IC50
T3 construct: host or cells: HEK-Blue cells (HEK293-derived reporter line)
T3 sequence (Q9NYK1 27-1049): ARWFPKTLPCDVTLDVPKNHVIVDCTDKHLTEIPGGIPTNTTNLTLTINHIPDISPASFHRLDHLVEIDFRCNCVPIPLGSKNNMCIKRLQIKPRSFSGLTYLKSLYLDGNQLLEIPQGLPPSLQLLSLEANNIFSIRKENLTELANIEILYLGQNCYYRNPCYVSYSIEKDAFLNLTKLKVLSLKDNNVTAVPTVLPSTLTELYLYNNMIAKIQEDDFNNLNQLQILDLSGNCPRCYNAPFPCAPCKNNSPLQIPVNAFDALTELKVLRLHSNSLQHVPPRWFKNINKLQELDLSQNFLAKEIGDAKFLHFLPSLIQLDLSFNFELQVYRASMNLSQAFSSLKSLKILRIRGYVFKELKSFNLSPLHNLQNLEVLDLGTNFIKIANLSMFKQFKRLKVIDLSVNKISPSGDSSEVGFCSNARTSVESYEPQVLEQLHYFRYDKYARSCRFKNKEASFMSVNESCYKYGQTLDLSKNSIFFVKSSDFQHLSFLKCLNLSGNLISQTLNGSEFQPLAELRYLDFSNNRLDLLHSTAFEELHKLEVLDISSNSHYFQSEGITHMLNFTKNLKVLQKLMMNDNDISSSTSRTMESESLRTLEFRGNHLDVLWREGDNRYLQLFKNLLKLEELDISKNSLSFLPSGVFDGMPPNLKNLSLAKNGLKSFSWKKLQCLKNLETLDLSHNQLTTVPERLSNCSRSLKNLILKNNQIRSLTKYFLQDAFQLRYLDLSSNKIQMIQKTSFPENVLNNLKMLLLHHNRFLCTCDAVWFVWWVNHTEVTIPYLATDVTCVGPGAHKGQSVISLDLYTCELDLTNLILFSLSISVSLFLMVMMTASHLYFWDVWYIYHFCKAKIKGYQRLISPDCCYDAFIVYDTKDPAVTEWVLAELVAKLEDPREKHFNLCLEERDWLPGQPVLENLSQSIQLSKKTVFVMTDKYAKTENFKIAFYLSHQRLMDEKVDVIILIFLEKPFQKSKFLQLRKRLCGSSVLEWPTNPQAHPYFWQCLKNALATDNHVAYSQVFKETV
Outline: as §1

[4] = HEK-Blue cells overexpressing human TLR9, stimulated with ODN2006 5 nM, read-out: TLR 9 IC50
[5] = HEK-Blue cells overexpressing human TLR9, stimulated with ODN2006 5 nM, 22 hour incubation, reporter readout

Compound | IC50 [1] [nM] | IC50 [1, 4] [nM] | IC50 [2] [nM] | IC50 [3] [nM] | IC50 [1, 5] [nM] | IC50 ([1]; HEK-Blue human TLR9 reporter cells) [nM]
Cn1c(-c2ccc(S(C)(=O)=O)cc2)nc2cc(C3CCN(C4CC5CCC(C4)N5CC4CC4)CC3)cc(F)c21 (stereo not drawn) [Example 218, 5-(1-(8-(cyclopropylmethyl)-8-azabicyclo[3.2.1]octan-3-yl)piperidin-4-yl)-7-fluoro-1-methyl-2-(4-(methylsulfonyl)phenyl)-1H-benzo[d]imidazole] | 140 | 140 | 48700 | 5600 |  | 
Cn1c(-c2ccc(S(C)(=O)=O)cc2)nc2cc(C3CCN(C4CCN(C5CCC5)CC4)CC3)cc(F)c21 [Example 205, 5-(1′-cyclobutyl-[1,4′-bipiperidin]-4-yl)-7-fluoro-1-methyl-2-(4-(methylsulfonyl)phenyl)-1H-benzo[d]imidazole] | 110 | 114 | > 50000 | 21300 |  | 
CC(C)CN1CCC(N2CCC(c3cc(F)c4c(c3)nc(-c3ccc(S(C)(=O)=O)cc3)n4C)CC2)CC1 [Example 201, 7-fluoro-5-(1′-isobutyl-[1,4′-bipiperidin]-4-yl)-1-methyl-2-(4-(methylsulfonyl)phenyl)-1H-benzo[d]imidazole] | 97 | 97 | > 50000 | 14400 |  | 
Cc1cc(-c2cccc(CN3CCC(N4CCCC4)CC3)c2)cc2c1nc(-c1ccc(S(C)(=O)=O)cc1)n2C1CC1 [Example 407, 1-cyclopropyl-4-methyl-2-(4-(methylsulfonyl)phenyl)-6-(3-((4-(pyrrolidin-1-yl)piperidin-1-yl)methyl)phenyl)-1H-benzo[d]imidazole] |  | 46 | 5000 | 800 | 46 | 
Cn1c(-c2ccc(S(C)(=O)=O)cc2)nc2cc(C3CCN(C4CC5CCC(C4)N5C4COC4)CC3)c(F)cc21 (single isomer, unassigned) [Example 254, 6-fluoro-1-methyl-2-(4-(methylsulfonyl)phenyl)-5-(1-(8-(oxetan-3-yl)-8-azabicyclo[3.2.1]octan-3-yl)piperidin-4-yl)-1H-benzo[d]imidazole] | 5300 | 5310 | > 50000 | > 50000 |  | 
Cc1cc(C2CCN(C3CCN(CC(C)C)CC3)CC2)cc2[nH]c(-c3ccc4nccn4c3)nc12 [Example 25, 2-(imidazo[1,2-a]pyridin-6-yl)-6-(1′-isobutyl-[1,4′-bipiperidin]-4-yl)-4-methyl-1H-benzo[d]imidazole] |  | 164 | > 50000 | 3000 | 160 | 
Cc1cc(-c2ccc(C3CCN(C4CCOCC4)CC3)cc2)cc2c1nc(-c1ccc(S(C)(=O)=O)cc1)n2C [Example 364, 1,4-dimethyl-2-(4-(methylsulfonyl)phenyl)-6-(4-(1-(tetrahydro-2H-pyran-4-yl)piperidin-4-yl)phenyl)-1H-benzo[d]imidazole] |  |  | > 50000 | > 50000 | 310 | 
CC(C)CN1CCC(N2CCC(c3cc4nc(-c5ccc(S(C)(=O)=O)cc5)n(C)c4cc3F)CC2)CC1 [Example 240, 6-fluoro-5-(1′-isobutyl-[1,4′-bipiperidin]-4-yl)-1-methyl-2-(4-(methylsulfonyl)phenyl)-1H-benzo[d]imidazole] | 120 | 121 | > 50000 | 6600 |  | 
CC(C)N1C2CCC1CC(N1CCC(c3ccc4nc(-c5ccc(S(C)(=O)=O)cc5)[nH]c4c3F)CC1)C2 (single isomer, unassigned) [Example 95, 7-fluoro-6-(1-(8-isopropyl-8-azabicyclo[3.2.1]octan-3-yl)piperidin-4-yl)-2-(4-(methylsulfonyl)phenyl)-1H-benzo[d]imidazole] |  |  | > 50000 | > 50000 | 29 | 
Cn1c(-c2ccc(S(C)(=O)=O)cc2)nc2cc(C3CCN(C4CCN(CC5CC5)CC4)CC3)cc(F)c21 [Example 203, 5-(1′-(cyclopropylmethyl)-[1,4′-bipiperidin]-4-yl)-7-fluoro-1-methyl-2-(4-(methylsulfonyl)phenyl)-1H-benzo[d]imidazole] | 110 | 108 | > 50000 | 15400 |  | 
CS(=O)(=O)c1ccc(-c2nc3c(F)cc(C4CCN(C5CC6CCC(C5)N6C5CCOCC5)CC4)cc3n2C2CC2)cc1 (stereo not drawn) [Example 328, 1-cyclopropyl-4-fluoro-2-(4-(methylsulfonyl)phenyl)-6-(1-(8-(tetrahydro-2H-pyran-4-yl)-8-azabicyclo[3.2.1]octan-3-yl)piperidin-4-yl)-1H-benzo[d]imidazole] |  | 12 | > 50000 | 2300 |  | 12
